We go through four compounds from ChEMBL document CHEMBL1159213, “Terezines A-D: new amino acid-derived bioactive metabolites from the coprophilous fungus Sporormiella teretispora” (1995).

Common to all, as to type: functional
One assay concerns Candida albicans. Kind of assay: Antifungal activity against Candida albicans ATCC 14053 at 200 ug/disk by standard disk assay. The following applies: read-out: IZ.
In another assay the test system is Staphylococcus aureus. Description: Antibacterial activity against Staphylococcus aureus ATCC 29213 at 100 ug/disk by standard disk assay. The following applies: read-out: IZ.
The next assay deals with Ascobolus. Kind of assay: Antifungal activity against Ascobolus furfuraceus NRRL 6460 assessed as reduction in radial growth at 200 ug/disk by centerpoint inoculation disk assay. Also on record: scale not given: the % may be the effect or the level left.
The next assay has as its system Bacillus subtilis. Kind of assay: Antibacterial activity against Bacillus subtilis ATCC 6051 at 100 ug/disk by standard disk assay. The conditions noted are these: read-out: IZ.
In a further assay the test system is Sordaria fimicola. Description: Antifungal activity against Sordaria fimicola NRRL 6459 assessed as reduction in radial growth at 200 ug/disk by centerpoint inoculation disk assay. Also noted: scale not given: the % may be the effect or the level left.

For `COc1nc(C(C)C)c(O)nc1[C@H](O)c1ccccc1` [TEREZINE A], in the assay on Candida albicans, the zone of inhibition at 200 µg/disc was 8 mm. Besides, the zone of inhibition at 100 µg/disc with Staphylococcus aureus and in the assay on Bacillus subtilis was 8 mm each time. For the same compound, the Activity in the assay with Ascobolus and in the assay on Sordaria fimicola was 95% each time.
Regarding `COC1=N[C@](OC)(C(C)C)C(=O)N[C@@]1(O)[C@H](O)c1ccccc1` [TEREZINE B], the zone of inhibition at 100 µg/disc in the assay with Bacillus subtilis came to 8 mm.
`COC1=N[C@@](OC)(C(C)C)C(=O)N[C@@]1(O)[C@H](O)c1ccccc1` [TEREZINE C]: the zone of inhibition at 100 µg/disc in the assay on Staphylococcus aureus and with Bacillus subtilis was 8 mm in each case. Besides, in the assay with Sordaria fimicola, the Activity turned out to be 41%.
With `CC(C)=CCc1cccc2c(C[C@@H]3NC(=O)[C@H](C)NC3=O)c[nH]c12` [TEREZINE D], the Activity in the assay with Sordaria fimicola came to 50%.
